# How the values were obtained:
# Format in all cases: ADME, organism-based
# Homo sapiens [1] = assay: Apparent total clearance in black racial/ethnic human plasma at 400 mg, po twice daily after 8 days; conditions: in vivo, 192 h
# [2] = Cmax in black racial/ethnic human plasma at 400 mg, po twice daily after 8 days; design: dose 400 mg, route oral
# Homo sapiens [3] = assay: Apparent total clearance in >=65 yr old man plasma at 400 mg, po twice daily after 8 days; conditions: in vivo, 192 h
# [4] = (§1) AUC (0-12 hrs) in >=65 yr old human plasma at 400 mg, po twice daily after 8 days
# Homo sapiens [5] = assay: AUC (0-12 hrs) in 18-45 yr old man plasma at 400 mg, po twice daily after 8 days; design: time < 12 hr, dose 400 mg, route oral; conditions: in vivo
# Homo sapiens [6] = assay: Apparent total clearance in white racial/ethnic human plasma at 400 mg, po twice daily after 8 days; conditions: in vivo, 192 h
# Homo sapiens [7] = assay: as §1; design: time < 12 hr, dose 400 mg, route oral; conditions: in vivo
# [8] = Tmax in 18-45 yr old human plasma at 400 mg, po twice daily after 8 days
# [9] = Half life in >=65 yr old woman plasma at 400 mg, po twice daily after 8 days; conditions: female, human
# Homo sapiens [10] = assay: Apparent total clearance in 18-45 yr old man plasma at 400 mg, po twice daily after 8 days; conditions: in vivo, 192 h
# [11] = Cmax in 18-45 yr old woman plasma at 400 mg, po twice daily after 8 days; design: dose 400 mg, route oral; conditions: female, human
# [12] = Tmax in 18-45 yr old woman plasma at 400 mg, po twice daily after 8 days; conditions: female, human
# [13] = Half life in >=65 yr old man plasma at 400 mg, po twice daily after 8 days; conditions: male, human
# Homo sapiens [14] = assay: AUC (0-12 hrs) in >=65 yr old man plasma at 400 mg, po twice daily after 8 days; design: time < 12 hr, dose 400 mg, route oral; conditions: in vivo
# Homo sapiens [15] = assay: AUC (0-12 hrs) in 18-45 yr old woman plasma at 400 mg, po twice daily after 8 days; design: time < 12 hr, dose 400 mg, route oral; conditions: in vivo
# Homo sapiens [16] = assay: AUC (0-12 hrs) in 18-45 yr old human plasma at 400 mg, po twice daily after 8 days; design: dose 400 mg, time < 12 hr, route oral; conditions: in vivo
# [17] = Cmax in 18-45 yr old man plasma at 400 mg, po twice daily after 8 days; design: dose 400 mg, route oral; conditions: male, human
# Homo sapiens [18] = assay: Apparent total clearance in 18-45 yr old woman plasma at 400 mg, po twice daily after 8 days; conditions: in vivo, 192 h
# [19] = Tmax in >=65 yr old human plasma at 400 mg, po twice daily after 8 days
# [20] = Cmax in >=65 yr old man plasma at 400 mg, po twice daily after 8 days; design: dose 400 mg, route oral; conditions: male, human
# Homo sapiens [21] = assay: Apparent total clearance in >=65 yr old woman plasma at 400 mg, po twice daily after 8 days; conditions: in vivo, 192 h
# [22] = Half life in 18-45 yr old woman plasma at 400 mg, po twice daily after 8 days; conditions: female, human
# [23] = Cmax in >=65 yr old human plasma at 400 mg, po twice daily after 8 days; design: dose 400 mg, route oral
# [24] = Tmax in >=65 yr old man plasma at 400 mg, po twice daily after 8 days; conditions: male, human
# [25] = Tmax in 18-45 yr old man plasma at 400 mg, po twice daily after 8 days; conditions: male, human
# [26] = Half life in 18-45 yr old human plasma at 400 mg, po twice daily after 8 days
# [27] = Half life in white racial/ethnic human plasma at 400 mg, po twice daily after 8 days
# [28] = Cmax in white racial/ethnic human plasma at 400 mg, po twice daily after 8 days; design: dose 400 mg, route oral
# Homo sapiens [29] = assay: AUC (0-12 hrs) in white racial/ethnic human plasma at 400 mg, po twice daily after 8 days; design: time < 12 hr, dose 400 mg, route oral; conditions: in vivo
# [30] = Tmax in black racial/ethnic human plasma at 400 mg, po twice daily after 8 days
# [31] = Tmax in >=65 yr old woman plasma at 400 mg, po twice daily after 8 days; conditions: female, human
# Homo sapiens [32] = assay: AUC (0-12 hrs) in >=65 yr old woman plasma at 400 mg, po twice daily after 8 days; design: dose 400 mg, time < 12 hr, route oral; conditions: in vivo
# [33] = Tmax in white racial/ethnic human plasma at 400 mg, po twice daily after 8 days
# [34] = Cmax in 18-45 yr old human plasma at 400 mg, po twice daily after 8 days; design: dose 400 mg, route oral
# Homo sapiens [35] = assay: Apparent total clearance in >=65 yr old human plasma at 400 mg, po twice daily after 8 days; conditions: in vivo, 192 h
# [36] = Cmax in >=65 yr old woman plasma at 400 mg, po twice daily after 8 days; design: dose 400 mg, route oral; conditions: female, human
# [37] = Half life in black racial/ethnic human plasma at 400 mg, po twice daily after 8 days
# Homo sapiens [38] = assay: AUC (0-12 hrs) in black racial/ethnic human plasma at 400 mg, po twice daily after 8 days; design: dose 400 mg, time < 12 hr, route oral; conditions: in vivo
# Homo sapiens [39] = assay: Apparent total clearance in 18-45 yr old human plasma at 400 mg, po twice daily after 8 days; conditions: in vivo, 192 h
# [40] = Half life in 18-45 yr old man plasma at 400 mg, po twice daily after 8 days; conditions: male, human
structure (smiles),measurement,setting,value
CC[C@@H]([C@H](C)O)n1ncn(-c2ccc(N3CCN(c4ccc(OC[C@@H]5CO[C@@](Cn6cncn6)(c6ccc(F)cc6F)C5)cc4)CC3)cc2)c1=O [POSACONAZOLE],CL,Homo sapiens [1],37 L/h
same,Cmax,[2],2400 ng/mL
same,CL,Homo sapiens [3],28.1 L/h
same,half-life,[4],41.8 h
same,AUC,Homo sapiens [5],27784 ng·h/mL
same,CL,Homo sapiens [6],54 L/h
same,AUC,Homo sapiens [7],35444 ng·h/mL
same,Tmax,[8],5 h
same,half-life,[9],42.4 h
same,CL,Homo sapiens [10],33.5 L/h
same,Cmax,[11],2520 ng/mL
same,Tmax,[12],5 h
same,half-life,[13],37.7 h
same,AUC,Homo sapiens [14],32963 ng·h/mL
same,AUC,Homo sapiens [15],25507 ng·h/mL
same,AUC,Homo sapiens [16],26740 ng·h/mL
same,Cmax,[17],2680 ng/mL
same,CL,Homo sapiens [18],32.6 L/h
same,Tmax,[19],5 h
same,Cmax,[20],3250 ng/mL
same,CL,Homo sapiens [21],25.4 L/h
same,half-life,[22],31.9 h
same,Cmax,[23],3370 ng/mL
same,Tmax,[24],5 h
same,Tmax,[25],4 h
same,half-life,[26],31.6 h
same,half-life,[27],37.3 h
same,Cmax,[28],2860 ng/mL
same,AUC,Homo sapiens [29],30091 ng·h/mL
same,Tmax,[30],5 h
same,Tmax,[31],6 h
same,AUC,Homo sapiens [32],37924 ng·h/mL
same,Tmax,[33],5 h
same,Cmax,[34],2610 ng/mL
same,CL,Homo sapiens [35],26.7 L/h
same,Cmax,[36],3500 ng/mL
same,half-life,[37],32.2 h
same,AUC,Homo sapiens [38],25107 ng·h/mL
same,CL,Homo sapiens [39],33.1 L/h
same,half-life,[40],31.3 h

# Reference: ChEMBL document CHEMBL1142177, “Effects of age, gender, and race/ethnicity on the pharmacokinetics of posaconazole in healthy volunteers” (Antimicrob Agents Chemother, 2007)
